Source: patent US10640514B2, “Polymorph of DPPIV inhibitor maleate and preparation method therefor” (SHANGHAI INSTITUTE OF MATERIA MEDICA, CHINESE ACADEMY OF …, priority 2016, dated 2020)

How the values were obtained:
[1] = Hygroscopicity analysis (DVS); assay type: physicochemical; settings: range of conventional storage humidity, 25° C.
Description: Dynamic vapor absorption (DVS) test/water absorption test rapidly measures the increase and loss of the moisture in the sample caused by flow carrier gas with set relative humidity (RH), wherein the sample is placed on a digital microbalance with high sensitivity and high stability at a self-suspension state, and then the adsorption/desorption of water vapor is measured by measuring the increase/decrease of mass of the material, thereby determining the hygroscopicity of the sample.
In the present invention, the test parameters of the DVS are as follows: Instrument type: SMS DVS Intrinsic; Non-hydrate: 0 to 95%-0% RH; Temperature: 25° C.; Hydrate: 40 to 95%-0% RH; Temperature: 25° C.

Pharmacokinetics in rats = assay type: in vivo
ob/ob mice = experiment: Fasting blood glucose of ob/ob mice, chronic administration; assay type: in vivo
ICR mice = experiment: Acute toxicity test of ICR mice; assay type: in vivo; settings: 300 mg/kg administration group
Pharmacokinetics in dogs = assay type: in vivo
normal ICR mice = experiment: Oral glucose tolerance in normal ICR mice; assay type: in vivo
db/db mice = experiment: Fasting blood glucose of gene-deficient db/db mice, chronic administration; assay type: in vivo
DPP IV [2] = target: T1, DPP IV (Rattus norvegicus, UniProt P14740); experiment: Inhibition of DPP IV activity in normal rat plasma; assay type: in vivo
T1 construct: from tissue; host or cells: normal rat plasma

DPP IV [3] = target: DPP IV (Homo sapiens, UniProt P27487); experiment: DPP IV inhibitory activity and selectivity in vitro; assay type: biochemical
DPP IV [4] = target: T2, DPP IV (Mus musculus, UniProt P28843); experiment: Inhibition of DPP IV activity in normal mouse plasma; assay type: in vivo
T2 construct: from tissue; host or cells: normal mouse plasma

[5] = versus sitagliptin and vildagliptin

Chain of DPP IV (Homo sapiens, UniProt P27487) (P27487 whole entry, species assumed): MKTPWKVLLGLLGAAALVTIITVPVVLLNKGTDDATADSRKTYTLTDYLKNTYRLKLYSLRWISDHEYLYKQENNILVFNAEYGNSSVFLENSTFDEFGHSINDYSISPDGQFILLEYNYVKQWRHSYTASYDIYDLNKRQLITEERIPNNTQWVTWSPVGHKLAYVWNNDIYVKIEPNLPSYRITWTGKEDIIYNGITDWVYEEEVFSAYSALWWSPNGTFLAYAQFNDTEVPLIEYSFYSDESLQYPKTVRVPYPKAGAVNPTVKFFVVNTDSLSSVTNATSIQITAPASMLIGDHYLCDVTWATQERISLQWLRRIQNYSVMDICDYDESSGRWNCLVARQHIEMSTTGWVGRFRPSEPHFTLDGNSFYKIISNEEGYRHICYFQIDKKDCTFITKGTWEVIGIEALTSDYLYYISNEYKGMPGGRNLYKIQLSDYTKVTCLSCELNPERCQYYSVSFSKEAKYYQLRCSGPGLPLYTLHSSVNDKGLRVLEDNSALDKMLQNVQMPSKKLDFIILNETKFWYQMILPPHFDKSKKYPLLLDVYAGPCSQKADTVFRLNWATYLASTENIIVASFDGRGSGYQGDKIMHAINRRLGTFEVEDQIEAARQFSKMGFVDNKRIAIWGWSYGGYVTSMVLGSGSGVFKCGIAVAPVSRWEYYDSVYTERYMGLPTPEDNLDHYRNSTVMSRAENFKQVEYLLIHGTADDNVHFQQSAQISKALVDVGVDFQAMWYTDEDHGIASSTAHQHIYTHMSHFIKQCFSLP
T1 sequence (P14740 37-767 limits assumed): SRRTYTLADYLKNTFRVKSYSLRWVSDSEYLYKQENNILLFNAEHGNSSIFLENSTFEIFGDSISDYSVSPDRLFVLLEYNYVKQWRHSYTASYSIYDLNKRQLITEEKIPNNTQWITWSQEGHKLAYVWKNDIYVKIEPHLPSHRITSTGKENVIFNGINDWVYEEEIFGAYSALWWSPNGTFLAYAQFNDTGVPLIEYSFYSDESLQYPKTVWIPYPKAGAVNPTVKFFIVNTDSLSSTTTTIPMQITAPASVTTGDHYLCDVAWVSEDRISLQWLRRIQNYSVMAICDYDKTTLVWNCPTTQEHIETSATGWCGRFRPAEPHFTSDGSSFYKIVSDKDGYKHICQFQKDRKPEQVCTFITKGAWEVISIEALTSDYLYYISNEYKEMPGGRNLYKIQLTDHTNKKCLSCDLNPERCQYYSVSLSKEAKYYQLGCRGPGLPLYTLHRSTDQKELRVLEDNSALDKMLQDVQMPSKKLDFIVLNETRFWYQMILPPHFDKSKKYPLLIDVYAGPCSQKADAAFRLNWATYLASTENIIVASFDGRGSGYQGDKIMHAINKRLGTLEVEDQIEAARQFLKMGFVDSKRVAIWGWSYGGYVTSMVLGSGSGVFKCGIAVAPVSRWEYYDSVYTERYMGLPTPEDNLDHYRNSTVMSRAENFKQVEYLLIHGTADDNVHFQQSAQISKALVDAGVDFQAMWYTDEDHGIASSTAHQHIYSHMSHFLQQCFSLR
T2 sequence (P28843 37-760 limits assumed): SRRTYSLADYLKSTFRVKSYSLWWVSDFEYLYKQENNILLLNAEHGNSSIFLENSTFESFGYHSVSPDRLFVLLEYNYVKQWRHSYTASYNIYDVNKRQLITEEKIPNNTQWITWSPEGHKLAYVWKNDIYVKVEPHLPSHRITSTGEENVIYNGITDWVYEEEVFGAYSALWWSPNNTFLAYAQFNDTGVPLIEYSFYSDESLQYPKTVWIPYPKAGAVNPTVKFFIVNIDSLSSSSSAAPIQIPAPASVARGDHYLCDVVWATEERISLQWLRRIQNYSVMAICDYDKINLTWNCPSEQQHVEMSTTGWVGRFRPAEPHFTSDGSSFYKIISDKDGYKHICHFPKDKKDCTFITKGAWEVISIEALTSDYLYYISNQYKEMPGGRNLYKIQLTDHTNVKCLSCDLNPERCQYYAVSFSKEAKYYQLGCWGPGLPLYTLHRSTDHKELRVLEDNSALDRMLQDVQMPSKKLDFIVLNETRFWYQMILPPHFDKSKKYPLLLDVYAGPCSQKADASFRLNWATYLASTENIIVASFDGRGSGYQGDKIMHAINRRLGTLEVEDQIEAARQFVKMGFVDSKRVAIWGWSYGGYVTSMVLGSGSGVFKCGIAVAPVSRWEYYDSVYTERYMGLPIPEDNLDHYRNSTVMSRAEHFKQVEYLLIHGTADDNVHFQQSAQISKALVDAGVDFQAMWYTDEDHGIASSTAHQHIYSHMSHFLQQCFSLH

Compound: COC(=O)c1cc2nc(N3CCC[C@@H](N)C3)n(Cc3ccccc3C#N)c(=O)c2s1.O=C(O)/C=C\C(=O)O [crystal form A, (R)-methyl-2-(3-aminopiperidin-1-yl)-3-(2-cyanobenzyl)-4-carbonyl-3,4-dihydrothiophene[3,2-d]pyrimidine-6-carboxylic acid maleate]
- hygroscopicity, variation range (DVS) [1]: less than 2.0%

Compound: COC(=O)c1cc2nc(N3CCC[C@@H](N)C3)n(Cc3ccccc3C#N)c(=O)c2s1 [compound of formula I, (R)-methyl-2-(3-aminopiperidin-1-yl)-3-(2-cyanobenzyl)-4-carbonyl-3,4-dihydrothiophene[3,2-d]pyrimidine-6-carboxylic acid]
- AUC0-t compared with alogliptin (Pharmacokinetics in rats): superior to those of the marketed drug alogliptin
- half-life compared with alogliptin (Pharmacokinetics in rats): superior to those of the marketed drug alogliptin
- fasting blood glucose (ob/ob mice): effectively reduce fasting blood glucose
- fasting blood glucose reduction compared with alogliptin (ob/ob mice): superior to positive control drug alogliptin
- animal death in acute toxicity test (ICR mice): no animal dies
- AUC0-t compared with alogliptin (Pharmacokinetics in dogs): superior to those of the marketed drug alogliptin
- half-life compared with alogliptin (Pharmacokinetics in dogs): superior to those of the marketed drug alogliptin
- effect on oral glucose tolerance compared with alogliptin (normal ICR mice): superior to that of alogliptin
- onset dose for increase of oral glucose tolerance (normal ICR mice): 0.1 mg/kg
- oral glucose tolerance (normal ICR mice; dose-dependent manner): increase oral glucose tolerance
- fasting blood glucose (db/db mice): reduce its fasting blood glucose
- fasting blood glucose reduction compared with alogliptin (db/db mice): comparable to positive control drug alogliptin
- inhibition of DPP IV activity in plasma (DPP IV [2]): effective in inhibiting DPP IV activity
- plasma DPP IV inhibitory activity compared with alogliptin (DPP IV [2]): superior to the marketed drug alogliptin
- mode of DPP IV inhibition (DPP IV [3]): selective, reversible competitive inhibitor
- DPP IV inhibitory activity (DPP IV [3]; in vitro): nanomolar level
- DPP IV inhibitory activity in vitro compared with marketed drugs (DPP IV [3]; [5]): superior to the marketed drugs sitagliptin and vildagliptin
- DPP IV selectivity in vitro compared with marketed drugs (DPP IV [3]; [5]): superior to the marketed drugs sitagliptin and vildagliptin
- inhibition of DPP IV activity in plasma (DPP IV [4]): effective in inhibiting DPP IV activity
- plasma DPP IV inhibitory activity compared with alogliptin (DPP IV [4]): superior to the marketed drug alogliptin
